Data reported in patent publication US7714134B2, “Compounds and use of tetrahydropyridothiophenes” (4SC AG, priority 2004, dated 2010).

What was measured:
[1] = tested on: RKO colon adenocarcinoma cells (RKOp27) arrested by expression of ectopic p27Kip1; assay: Alamar Blue cell viability assay, cell cycle specific mode of action, RKO p27 induced (arrested by Ponasterone A-induced p27Kip1); assay type: cell-based; conditions: Homo sapiens, RKOp27, 72 h, cells arrested by p27Kip1 induced with 10 μM Ponasterone A, 72 hours incubation
Description: To determine the cell cycle specific mode of action, subdlones of RKO colon adenocarcinoma cells (RKOp27 or RKOp21 as described by Schmidt et al. in Oncogene 19, 2423-2429; 2000) are seeded into 96 well flat bottom plates at a density of 16000 cells per well in a volume of 50 μl per well in DMEM growth medium with 10% FCS containing 10 μM Ponasterone A. 24 hours after seeding the 50 μl each of the compound dilutions in DMEM medium are added into each well of the 96 Well plate. Each compound dilution is tested as quadruplicates. Wells containing untreated control cells are filled with 50 μl DMEM medium containing 1% DMSO. The cells are then incubated with the substances for 72 hours at 37° C. in a humidified atmosphere containing 5% carbon dioxide. To determine the viability of the cells, 10 μl of an Alamar Blue solution (Biosource) are added and the fluorescence was measured at an extinction of 544 nm and an emission of 590 nm. For the calculation of the cell viability the emission value from untreated cells is set as 100% viability and the emission rates of treated cells are set in relation to the values of untreated cells. Viabilities are expressed as % values. Viability is compared of proliferating cells grown in the absence of the inducer Ponasterone A, versus viability of cells arrested by the expression of ectopic p27Kip1 induced by Ponasterone A. The data of this experimental setting are summarized in table A (2nd column).

[2] = tested on: RKO (RKOp27) human colon adenocarcinoma cells; assay: Alamar Blue cell viability assay, anti-proliferative/cytotoxic activity, RKO p27 uninduced; assay type: cell-based; conditions: RKOp27, 72 h, proliferating cells, absence of the inducer Ponasterone A, 72 hours incubation
Description: The anti-proliferative/cytotoxic activity of the compounds described herein, can be tested on subdlones of RKO (RKOp27) human colon adenocarcinoma cells (Schmidt et al., Oncogene 19, 2423-2429; 2000) using the Alamar Blue cell viability assay (described in O'Brien et al. Eur J Biochem 267, 5421-5426, 2000). The compounds are dissolved as 20 mM solutions in dimethylsulfoxide (DMSO) and subsequently diluted in semi-logarithmic steps. DMSO dilutions are further diluted 1:100 into Dulbecco's modified Eagle's medium (DMEM) containing 10% fetal calf serum to a final concentration twice as much as the final concentration in the test. RKO subclones are seeded into 96 well flat bottom plates at a density of 4000 cells per well in a volume of 50 µl per well. 24 hours after seeding the 50 μl each of the compound dilutions in DMEM medium are added into each well of the 96 Well plate. Each compound dilution is tested as quadruplicates. Wells containing untreated control cells are filled with 50 μl DMEM medium containing 1% DMSO. The cells are then incubated with the substances for 72 hours at 37° C. in a humidified atmosphere containing 5% carbon dioxide. To determine the viability of the cells, 10 μl of an Alamar Blue solution (Biosource) are added and the fluorescence is measured at an extinction of 544 nm and an emission of 590 nm. For the calculation of the cell viability the emission value from untreated cells is set as 100% viability and the emission rates of treated cells are set in relation to the values of untreated cells. Viabilities are expressed as % values.
The corresponding IC50 values of the compounds for anti-proliferative/cytotoxic activity are determined from the concentration-effect curves.
Representative IC50 values for anti-proliferation/cytotoxicity determined for the compounds mentioned and numbered as Examples in the examples above follow from the following table A (1st column), in which the numbers of the compound correspond to the numbers of the examples. Any or all of the compounds according to the present invention which are listed in the Table A, as well as their salts, are to be mentioned as a particular interesting subject of the present invention.

| Structure (SMILES) | IC50 [1] [µM] | IC50 [2] [µM] |
| --- | --- | --- |
| CC(=O)NCCOC(=O)N1CCc2c(sc(NC(=O)c3ccccc3)c2C#N)C1 [Compound 94, 3-Cyano-2-[(1-phenyl-methanoyl)-amino]4,7-dihydro-5H-thieno[2,3-c]pyridine-6-carboxylic acid 2-acetylamino-ethyl ester] | > 100 | ≤ 3 |
| CCOC(=O)N1CCc2c(sc(NC(=O)c3cc(OC)cc(OC)c3)c2C#N)C1 [Compound 19, N-(6-Ethoxycarbonyl-3-cyano-4,5,6,7-tetrahydro-thieno[2,3-c]pyridin-2-yl)-3,5-dimethoxybenzamide] | > 100 | ≤ 2 |
| N#Cc1c(NC(=O)c2ccccc2)sc2c1CCN(C(=O)CO)C2 [Compound 87, N-[3-Cyano-6-(2-hydroxy-ethanoyl)-4,5,6,7-tetrahydro-thieno[2,3-c]pyridin-2-yl]-benzamide] | > 100 | ≤ 3 |
| COc1cccc(C(=O)Nc2sc3c(c2C#N)CCN(C(=O)OC(C)(C)C)C3)c1 [Compound 3, N-(6-tert.-Butyloxycarbonyl-3-cyano-4,5,6,7-tetrahvdro-thieno[2,3-c]pyridin-2-yl)-3-methoxybenzamide] | > 100 | ≤ 2 |
| CCCOC(=O)N1CCc2c(sc(NC(=O)c3ccccc3)c2C#N)C1 [Compound 64, 3-Cyano-2-[(1-phenyl-methanoyl)-amino]-4,7-dihydro-5H-thieno[2,3-c]pyridine-6-carboxylic acid propyl ester] | > 60 | ≤ 3 |
| CCOC(=O)N1CCc2c(sc(NC(=O)c3ccccc3[N+](=O)[O-])c2C#N)C1 [Compound 46, 3-Cyano-2-{[1-(2-nitro-phenyl)-methanoyl]-amino}-4,7-dihydro-5H-thieno[2,3-c]pyridine-6-carboxylic acid ethyl ester] | > 60 | ≤ 3 |
| N#Cc1c(NC(=O)c2ccccc2)sc2c1CCN(C(=O)CCNC(=N)N)C2 [Compound 39, N-[3-Cyano6-(3-guanidino-propanoyl)-4,5,6.7-tetrahydro-thieno[2,3-c]pyridin-2-yl]-benzamide] | > 60 | ≤ 3 |
| N#Cc1c(NC(=O)c2ccccc2)sc2c1CCN(C(=O)OCCc1ccncc1)C2 [Compound 73, 3-Cyano-2-[(1-phenyl-methanoyl)-amino]4,7-dihydro-5H-thieno[2,3-c]pyridine-6-carboxylic acid 2-pyridin4-yl-ethyl ester] | > 60 | ≤ 3 |

Second part, led by results:

| IC50 [1] [µM] | Structure (SMILES) | IC50 [2] [µM] |
| --- | --- | --- |
| 80 | CCCC(=O)N1CCc2c(sc(NC(=O)c3ccccc3)c2C#N)C1 [Compound 5] | ≤ 2 |
| > 60 | N#Cc1c(NC(=O)c2ccccc2)sc2c1CCN(C(=O)OCCCc1ccccn1)C2 [Compound 71, 3-Cyano-2-[(1-phenyl-methanoyl)-amino]-4,7-dihydro-5H-thieno[2,3-c]pyridine-6-carboxylic acid 3-pyridin-2-yl-propyl ester] | ≤ 3 |
| > 60 | N#Cc1c(NC(=O)c2ccccc2)sc2c1CCN(C(=O)Cc1ccccn1)C2 [Compound 42, N-[3-Cyano-6-(2-pyridin-2-yl-ethanoyl)-4,5,7-tetrahydro-thieno[2,3-c]pyridin-2-yl]-benzamide] | ≤ 3 |
| > 60 | N#Cc1c(NC(=O)c2ccccc2)sc2c1CCN(C(=O)OCCCN1CCOCC1)C2 [Compound 70, 3-Cyano-2-[(1-phenyl-methanoyl)-amino]-4,7-dihydro-5H-thieno[2,3-c]pyridine-6-carboxylic acid 3-morpholin-4-yl-propyl ester] | ≤ 3 |
| > 60 | CCCCCCOC(=O)N1CCc2c(sc(NC(=O)c3ccccc3)c2C#N)C1 [Compound 57, 3-Cyano-2-[(1-phenyl-methanoyl)-amino]-4,7-dihydro-5H-thieno[2,3-c]pyridine-6-carboxylic acid hexyl ester] | ≤ 3 |
| > 60 | N#Cc1c(NC(=O)c2ccccc2)sc2c1CCN(C(=O)Cc1cccnc1)C2 [Compound 35, N-[3-Cyano-6-(2-pyridin-3-yl-ethanoyl)-4,5,6,7-tetrahydro-thieon[2,3-c]pyridin-2-yl]-benzamide] | ≤ 3 |
